In the supplement of paper PMC10307832:

Legend:
Experiment in all cases: relative viability (nuclei count vs DMSO), 5 days (fraction); higher = more cells survive
[1] = compound: CN(C)C/C=C/C(=O)Nc1cc2c(Nc3ccc(F)c(Cl)c3)ncnc2cc1O[C@H]1CCOC1 [Afatinib] + Nc1ncn([C@H]2C[C@H](O)[C@@H](CO)O2)c(=O)n1 [Decitabine] (partner 2 µM)
In short: (§1)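 Lung cancer cell lines, seeded in 1536-well plates, were treated the following day by pin tool with a single drug or with five library-drug doses (not always all listed) in √10 steps on top of a fixed anchor-drug dose. Cells were fixed and nuclei stained in one step after 5 days, and nuclei were counted. Relative viability is the nuclei count for treated wells divided by that for vehicle wells, reported as medians of duplicate plates.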

[2] = compound: CN(C)C/C=C/C(=O)Nc1cc2c(Nc3ccc(F)c(Cl)c3)ncnc2cc1O[C@H]1CCOC1 [Afatinib] + O=C(c1cc(Cc2n[nH]c(=O)c3ccccc23)ccc1F)N1CCN(C(=O)C2CC2)CC1 [Olaparib] (partner 8 µM)
In short: as §1

[3] = compound: CN(C)C/C=C/C(=O)Nc1cc2c(Nc3ccc(F)c(Cl)c3)ncnc2cc1O[C@H]1CCOC1 [Afatinib] + CS(=O)(=O)CCNCc1ccc(-c2ccc3ncnc(Nc4ccc(OCc5cccc(F)c5)c(Cl)c4)c3c2)o1 [Lapatinib] (partner 2 µM)
In short: as §1

[4] = compound: CN(C)C/C=C/C(=O)Nc1cc2c(Nc3ccc(F)c(Cl)c3)ncnc2cc1O[C@H]1CCOC1 [Afatinib] + NC(=O)Nc1cc(-c2cccc(F)c2)sc1C(=O)N[C@H]1CCCNC1 [AZD7762] (partner 0.2 µM)
In short: as §1

Row | Cell Line | relative viability ([1]; first compound 0.005 µM) | relative viability ([1]; first compound 0.01581 µM) | relative viability ([1]; first compound 0.05 µM) | relative viability ([1]; first compound 0.1581 µM) | relative viability ([1]; first compound 0.5 µM) | relative viability ([2]; first compound 0.005 µM) | relative viability ([2]; first compound 0.01581 µM) | relative viability ([2]; first compound 0.05 µM) | relative viability ([2]; first compound 0.1581 µM) | relative viability ([2]; first compound 0.5 µM) | relative viability ([3]; first compound 0.005 µM) | relative viability ([3]; first compound 0.01581 µM) | relative viability ([3]; first compound 0.05 µM) | relative viability ([3]; first compound 0.1581 µM) | relative viability ([3]; first compound 0.5 µM) | relative viability ([4]; first compound 0.005 µM) | relative viability ([4]; first compound 0.01581 µM) | relative viability ([4]; first compound 0.05 µM) | relative viability ([4]; first compound 0.1581 µM) | relative viability ([4]; first compound 0.5 µM)
1 | LCLC-97TM1 | 0.262 | 0.17 | 0.234 | 0.273 | 0.255 | 0.424 | 0.351 | 0.348 | 0.273 | 0.397 | 1.11 | 0.837 | 1.11 | 0.688 | 0.568 | 0.164 | 0.259 | 0.186 | 0.42 | 0.18
2 | LK-2 | 0.41 | 0.258 | 0.288 | 0.328 | 0.301 | 0.705 | 0.591 | 0.725 | 0.766 | 0.79 | 1.13 | 0.787 | 0.846 | 0.851 | 1.01 | 0.465 | 0.328 | 0.371 | 0.329 | 0.521
3 | LOU-NH91 | 0.617 | 0.672 | 0.699 | 0.643 | 0.697 | 0.701 | 0.704 | 0.701 | 0.687 | 0.742 | 0.76 | 0.754 | 0.806 | 0.736 | 0.683 | 0.707 | 0.704 | 0.76 | 0.679 | 0.637
4 | LU99A | 0.903 | 0.93 | 0.929 | 0.873 | 0.964 | 0.253 | 0.266 | 0.249 | 0.248 | 0.264 | 1.08 | 1.07 | 1.02 | 0.979 | 0.871 | 0.238 | 0.41 | 0.37 | 0.257 | 0.293
5 | LXF-289 | 0.371 | 0.356 | 0.366 | 0.351 | 0.365 | 1.12 | 1.06 | 1.09 | 1.04 | 1.03 | 0.937 | 0.91 | 0.95 | 0.903 | 0.917 | 1.05 | 1.03 | 1.11 | 1.02 | 1.02
6 | NCI-H23 | 0.327 | 0.314 | 0.278 | 0.317 | 0.309 | 0.331 | 0.303 | 0.37 | 0.291 | 0.333 | 1.34 | 1.23 | 1.08 | 1.04 | 1.01 | 0.17 | 0.226 | 0.237 | 0.23 | 0.195
7 | NCI-H322M | 0.637 | 0.509 | 0.55 | 0.502 | 0.479 | 0.743 | 0.573 | 0.559 | 0.559 | 0.531 | 0.554 | 0.547 | 0.499 | 0.57 | 0.465 | 0.433 | 0.407 | 0.389 | 0.402 | 0.348
8 | NCI-H358 | 0.191 | 0.18 | 0.149 | 0.163 | 0.136 | 0.48 | 0.586 | 0.314 | 0.145 | – | 0.502 | 0.356 | 0.408 | 0.436 | 0.432 | 0.406 | 0.373 | 0.284 | 0.273 | 0.22
9 | NCI-H460 | 0.446 | 0.464 | 0.521 | 0.526 | 0.551 | 0.373 | 0.407 | 0.439 | 0.458 | 0.491 | 0.973 | 0.932 | 1.04 | 1.02 | 0.842 | 0.396 | 0.595 | 0.62 | 0.635 | 0.603
10 | NCI-H596 | 1.02 | 0.962 | 1.08 | 1.1 | 1.01 | 0.706 | 0.707 | 0.697 | 0.58 | 0.685 | 1.09 | 1.08 | 1.09 | 1.02 | 1.02 | 1.06 | 1.01 | 1.11 | 1.09 | 0.901
11 | NCI-H647 | 0.459 | 0.499 | 0.425 | 0.315 | 0.419 | 0.559 | 0.563 | 0.526 | 0.414 | 0.552 | 1.09 | 0.948 | 1.16 | 1.24 | 1.2 | 0.32 | 0.426 | 0.403 | 0.525 | 0.466
12 | NCI-H650 | 0.321 | 0.323 | 0.334 | 0.334 | 0.308 | 0.339 | 0.429 | 0.441 | 0.407 | 0.399 | 1.01 | 0.844 | 1.19 | 1.21 | 0.684 | 0.832 | 0.886 | 1.03 | 1.04 | 0.904
13 | NCI-H727 | 0.826 | 0.534 | 0.831 | 0.761 | 0.829 | 0.827 | 0.824 | 0.606 | 0.572 | 0.815 | 0.892 | 0.861 | 0.894 | 0.639 | 0.948 | 0.574 | 0.467 | 0.527 | 0.515 | 0.543
14 | NCI-H838 | 0.496 | 0.445 | 0.481 | 0.451 | 0.461 | 0.803 | 0.723 | 0.819 | 0.757 | 0.815 | 0.986 | 0.953 | 1.07 | 1.08 | 1.06 | 0.801 | 0.946 | 0.915 | 0.968 | 0.953
15 | NCI-H1355 | 0.377 | 0.332 | 0.341 | 0.356 | 0.332 | 0.723 | 0.768 | 0.713 | 0.716 | 0.67 | 1.03 | 1.08 | 1 | 0.945 | 1.03 | 0.71 | 0.765 | 0.779 | 0.645 | 0.748
16 | NCI-H1395 | 0.773 | 0.741 | 0.744 | 0.657 | 0.672 | 0.471 | 0.475 | 0.463 | 0.483 | 0.49 | 1.13 | 0.965 | 1.22 | 1.02 | 0.897 | 0.388 | 0.378 | 0.377 | 0.385 | 0.354
